These are literature values, as cited in patent publication US10993890B2, “Antifungal solution and foot wipe” (PELLI SKIN CO., LLC, priority 2018, dated 2021).

For series [1] the following is noted: octanol/water partition coefficient of the solvent.
Series [2] relates to skin cells. The conditions noted are these: 3% ethanol applied to skin cells over the course of two days.

In the case of 1,3-dioxolan, in series [1], the LogKow was −0.37.
Regarding `CC1COCO1` (centres unmarked) [4-Methyl-1,3-dioxolane], the LogKow in series [1] was 0.3792.
`CCO` [ethanol]: in series [2], the “increase of cell death” value is given as 26%.
Take `C1CCOCOC1` [1,3-Dioxepane]: the LogKow in series [1] is given as 0.7709.
Consider `OC1COCOC1` [5-Hydroxy-1,3-dioxane], for which the LogKow in series [1] is −1.082.
